SMILES strings stand for the structures.

The test system of the data set is mucin. In words: Bulk diffusion of FITC-peptides and fluorescein salt in mucin. The following applies: DPBS/Dmucin. It counts as in vitro ADME.

Consider `O=C([O-])c1ccccc1-c1c2ccc(=O)cc-2oc2cc([O-])ccc12.[Na+].[Na+]` [Fluorescein salt, fluorescein sodium salt], for which the “fold decreased diffusion in mucin compared to saline” value was determined as 3 fold.
